Laboratory results taken from ChEMBL document CHEMBL3525953, “In vitro cytochrome P450-mediated metabolism of exemestane” (Drug Metab Dispos, 2011).

Experiments:
Assay type in all cases: ADME
[1] = system: Liver microsome; assay: Drug metabolism in human liver microsomes assessed as retention time at 50 uM after 10 mins by HPLC with UV analysis
[2] = biological target: Cytochrome P450 2E1 (Homo sapiens, UniProt P05181); assay: Drug metabolism assessed as human recombinant CYP2E1-mediated 17-hydroexemestane and 6-Hydroxymethylexemestane formation assessed as inhibition of metabolite formation at 10 uM after 10 mins by Michaelis-Menten saturation curve analysis in presence of 50 uM diethylthiocarbamate; set-up: interact cpd dose 50 uM; conditions: recombinant enzyme
Cytochrome P450 2E1, sequence (P05181 whole entry): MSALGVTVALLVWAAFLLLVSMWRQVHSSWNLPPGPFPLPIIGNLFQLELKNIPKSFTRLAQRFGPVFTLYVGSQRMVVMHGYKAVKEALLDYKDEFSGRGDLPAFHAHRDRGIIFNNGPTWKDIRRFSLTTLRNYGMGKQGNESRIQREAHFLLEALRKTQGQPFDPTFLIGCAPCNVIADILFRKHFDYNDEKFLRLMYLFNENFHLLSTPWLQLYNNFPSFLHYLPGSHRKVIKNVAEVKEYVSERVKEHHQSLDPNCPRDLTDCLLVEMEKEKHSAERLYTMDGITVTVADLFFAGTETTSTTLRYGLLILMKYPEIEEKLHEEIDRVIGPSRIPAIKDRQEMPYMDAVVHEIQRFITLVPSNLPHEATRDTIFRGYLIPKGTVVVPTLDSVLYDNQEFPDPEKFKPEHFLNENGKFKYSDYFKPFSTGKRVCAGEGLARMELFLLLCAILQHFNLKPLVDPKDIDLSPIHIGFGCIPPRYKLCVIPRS

[3] = system: Liver microsome; assay: Drug metabolism in human liver microsomes assessed as retention time at 300 uM after 10 mins by HPLC with UV analysis
[4] = biological target: T1, Cytochrome P450 2B6 (Homo sapiens, UniProt P20813); assay: Drug metabolism assessed as human recombinant CYP2B6-mediated 17-hydroexemestane and 6-Hydroxymethylexemestane formation assessed as inhibition of metabolite formation at 10 uM after 10 mins by Michaelis-Menten saturation curve analysis in presence of 5 uM thioTEPA; set-up: interact cpd dose 5 uM; conditions: recombinant enzyme
T1 sequence (P20813 whole entry): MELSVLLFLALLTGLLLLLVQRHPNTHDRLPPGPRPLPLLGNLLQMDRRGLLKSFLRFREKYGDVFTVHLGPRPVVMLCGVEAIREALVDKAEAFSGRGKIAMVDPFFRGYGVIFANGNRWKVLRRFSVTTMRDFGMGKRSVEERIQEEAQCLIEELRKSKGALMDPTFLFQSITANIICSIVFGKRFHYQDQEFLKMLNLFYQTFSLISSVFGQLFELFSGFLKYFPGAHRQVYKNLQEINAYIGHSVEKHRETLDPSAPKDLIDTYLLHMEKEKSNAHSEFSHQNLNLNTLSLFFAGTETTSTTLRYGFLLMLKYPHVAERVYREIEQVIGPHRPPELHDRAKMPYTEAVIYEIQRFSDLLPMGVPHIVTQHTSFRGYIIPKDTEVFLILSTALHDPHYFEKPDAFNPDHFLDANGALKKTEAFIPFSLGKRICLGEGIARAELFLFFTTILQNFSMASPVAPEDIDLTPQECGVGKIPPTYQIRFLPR

[5] = biological target: Cytochrome P450 3A4 (Homo sapiens, UniProt P08684); assay: Drug metabolism assessed as human recombinant CYP3A4-mediated 6-Hydroxymethylexemestane formation rate per pmol of enzyme at 10 uM after 10 mins
Cytochrome P450 3A4, sequence (P08684 whole entry): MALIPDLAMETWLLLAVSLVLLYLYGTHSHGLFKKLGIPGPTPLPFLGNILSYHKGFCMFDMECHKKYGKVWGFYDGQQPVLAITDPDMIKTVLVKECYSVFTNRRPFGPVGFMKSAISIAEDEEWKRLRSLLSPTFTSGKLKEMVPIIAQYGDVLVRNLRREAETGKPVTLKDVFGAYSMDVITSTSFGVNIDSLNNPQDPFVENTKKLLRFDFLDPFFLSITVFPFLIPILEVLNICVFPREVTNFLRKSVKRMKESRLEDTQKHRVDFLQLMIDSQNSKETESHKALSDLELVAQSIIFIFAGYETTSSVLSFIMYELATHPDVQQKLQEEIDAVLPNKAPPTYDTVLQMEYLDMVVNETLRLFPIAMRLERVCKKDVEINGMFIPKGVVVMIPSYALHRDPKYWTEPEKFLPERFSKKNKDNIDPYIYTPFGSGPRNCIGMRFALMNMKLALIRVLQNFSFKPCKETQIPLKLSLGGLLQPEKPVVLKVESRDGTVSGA

[6] = biological target: Cytochrome P450 3A5 (Homo sapiens, UniProt P20815); assay: Drug metabolism assessed as human recombinant CYP3A5-mediated 6-Hydroxymethylexemestane formation rate per pmol of enzyme at 10 uM after 10 mins
Cytochrome P450 3A5, sequence (P20815 whole entry): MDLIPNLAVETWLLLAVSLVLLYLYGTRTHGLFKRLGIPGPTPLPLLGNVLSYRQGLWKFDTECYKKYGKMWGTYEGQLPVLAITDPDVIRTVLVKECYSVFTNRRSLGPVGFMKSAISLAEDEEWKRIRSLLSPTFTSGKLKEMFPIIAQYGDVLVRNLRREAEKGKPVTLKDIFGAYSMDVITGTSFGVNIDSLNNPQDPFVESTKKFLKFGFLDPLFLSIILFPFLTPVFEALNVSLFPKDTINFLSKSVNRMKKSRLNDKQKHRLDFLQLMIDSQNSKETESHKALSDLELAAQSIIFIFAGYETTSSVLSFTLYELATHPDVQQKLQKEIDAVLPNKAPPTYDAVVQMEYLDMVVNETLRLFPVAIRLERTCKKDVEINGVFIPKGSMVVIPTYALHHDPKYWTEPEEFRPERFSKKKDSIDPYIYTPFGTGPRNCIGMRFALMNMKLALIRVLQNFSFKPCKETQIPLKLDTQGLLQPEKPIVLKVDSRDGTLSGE

[7] = biological target: T1, Cytochrome P450 2B6; assay: Drug metabolism assessed as human recombinant CYP2B6-mediated 6-Hydroxymethylexemestane formation rate per pmol of enzyme at 10 uM after 10 mins
[8] = biological target: T2, Cytochrome P450 2C9 (Homo sapiens, UniProt P11712); assay: Drug metabolism assessed as human recombinant CYP2C9-mediated 6-Hydroxymethylexemestane formation rate per pmol of enzyme at 10 uM after 10 mins
T2 sequence (P11712 whole entry): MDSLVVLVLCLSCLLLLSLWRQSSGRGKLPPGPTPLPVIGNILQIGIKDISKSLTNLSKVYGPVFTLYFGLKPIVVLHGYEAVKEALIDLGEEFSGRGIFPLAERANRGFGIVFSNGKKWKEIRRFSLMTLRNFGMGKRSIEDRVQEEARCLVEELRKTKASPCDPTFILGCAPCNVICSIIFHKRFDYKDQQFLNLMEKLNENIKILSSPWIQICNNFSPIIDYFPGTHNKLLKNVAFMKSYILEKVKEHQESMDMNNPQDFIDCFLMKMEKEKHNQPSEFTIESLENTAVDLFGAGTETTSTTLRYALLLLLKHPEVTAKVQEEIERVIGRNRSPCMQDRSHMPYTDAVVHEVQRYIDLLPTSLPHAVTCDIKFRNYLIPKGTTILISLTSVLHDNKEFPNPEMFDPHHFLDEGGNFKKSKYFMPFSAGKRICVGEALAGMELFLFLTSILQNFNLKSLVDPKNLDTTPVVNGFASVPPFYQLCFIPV

[9] = biological target: T3, Cytochrome P450 1A1 (Homo sapiens, UniProt P04798); assay: Drug metabolism assessed as human recombinant CYP1A1-mediated 6-Hydroxymethylexemestane formation rate per pmol of enzyme at 10 uM after 10 mins
T3 sequence (P04798 whole entry): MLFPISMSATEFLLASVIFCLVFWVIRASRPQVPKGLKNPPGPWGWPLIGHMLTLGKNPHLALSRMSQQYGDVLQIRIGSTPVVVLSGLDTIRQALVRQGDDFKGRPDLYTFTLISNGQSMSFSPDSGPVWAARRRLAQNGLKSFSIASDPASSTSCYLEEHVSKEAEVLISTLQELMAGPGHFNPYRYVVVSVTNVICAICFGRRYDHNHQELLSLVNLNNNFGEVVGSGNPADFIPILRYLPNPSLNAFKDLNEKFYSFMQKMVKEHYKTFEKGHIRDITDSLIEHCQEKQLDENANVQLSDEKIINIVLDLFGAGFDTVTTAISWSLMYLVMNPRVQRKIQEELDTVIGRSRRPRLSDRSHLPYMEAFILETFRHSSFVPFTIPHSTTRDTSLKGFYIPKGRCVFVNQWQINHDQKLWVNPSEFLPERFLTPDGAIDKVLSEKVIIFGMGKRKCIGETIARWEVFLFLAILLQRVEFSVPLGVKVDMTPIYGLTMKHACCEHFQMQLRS

[10] = biological target: T4, Cytochrome P450 2C19 (Homo sapiens, UniProt P33261); assay: Drug metabolism assessed as human recombinant CYP2C19-mediated 6-Hydroxymethylexemestane formation rate per pmol of enzyme at 10 uM after 10 mins
T4 sequence (P33261 whole entry): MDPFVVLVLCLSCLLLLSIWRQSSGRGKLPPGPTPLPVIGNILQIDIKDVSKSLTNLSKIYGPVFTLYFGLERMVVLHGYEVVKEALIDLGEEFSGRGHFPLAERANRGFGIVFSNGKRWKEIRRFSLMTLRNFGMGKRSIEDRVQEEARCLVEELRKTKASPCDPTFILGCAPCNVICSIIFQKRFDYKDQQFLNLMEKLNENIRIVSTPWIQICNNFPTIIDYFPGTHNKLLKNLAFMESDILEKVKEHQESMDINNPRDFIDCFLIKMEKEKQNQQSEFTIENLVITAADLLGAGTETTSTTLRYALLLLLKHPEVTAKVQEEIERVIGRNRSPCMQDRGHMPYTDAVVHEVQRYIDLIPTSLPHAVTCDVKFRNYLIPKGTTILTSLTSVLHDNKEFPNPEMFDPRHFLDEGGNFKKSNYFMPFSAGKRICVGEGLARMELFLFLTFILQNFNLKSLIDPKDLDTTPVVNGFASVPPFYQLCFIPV

[11] = biological target: T5, Cytochrome P450 2C8 (Homo sapiens, UniProt P10632); assay: Drug metabolism assessed as human recombinant CYP2C8-mediated 6-Hydroxymethylexemestane formation rate per pmol of enzyme at 10 uM after 10 mins
T5 sequence (P10632 whole entry): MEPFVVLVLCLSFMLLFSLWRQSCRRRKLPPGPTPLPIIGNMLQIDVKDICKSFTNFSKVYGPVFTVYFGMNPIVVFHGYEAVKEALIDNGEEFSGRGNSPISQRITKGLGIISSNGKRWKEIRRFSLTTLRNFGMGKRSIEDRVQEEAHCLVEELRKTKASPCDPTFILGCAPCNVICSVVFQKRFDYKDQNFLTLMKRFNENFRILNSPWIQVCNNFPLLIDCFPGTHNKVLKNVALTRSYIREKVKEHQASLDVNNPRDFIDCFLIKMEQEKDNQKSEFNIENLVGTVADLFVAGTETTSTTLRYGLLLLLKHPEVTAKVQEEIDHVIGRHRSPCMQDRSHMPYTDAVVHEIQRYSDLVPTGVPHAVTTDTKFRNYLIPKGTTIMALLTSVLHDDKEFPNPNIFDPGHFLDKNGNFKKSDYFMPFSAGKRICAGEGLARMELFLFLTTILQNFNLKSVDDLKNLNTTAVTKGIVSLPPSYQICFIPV

[12] = system: Liver microsome; assay: Drug metabolism in human liver microsomes assessed as 6-hydroxymethylexemestane formation after 10 mins by Michaelis-Menten saturation curve analysis
[13] = system: Liver microsome; assay: Drug metabolism in human liver microsomes assessed as retention time treated with 300 uM of exemestane after 10 mins by HPLC with UV analysis
[14] = system: Liver microsome; assay: Drug metabolism in human liver microsomes assessed as 6-hydroxymethylexemestane formation at 10 uM after 10 mins by LC-MS/MS analysis
[15] = biological target: T1, Cytochrome P450 2B6; assay: Drug metabolism assessed as human recombinant CYP2B6-mediated 6-Hydroxymethylexemestane formation at 10 uM after 10 mins by Michaelis-Menten saturation curve analysis; conditions: recombinant enzyme
[16] = biological target: T2, Cytochrome P450 2C9; assay: Drug metabolism assessed as human recombinant CYP2C9-mediated 6-Hydroxymethylexemestane formation at 10 uM after 10 mins by Michaelis-Menten saturation curve analysis; conditions: recombinant enzyme
[17] = biological target: T4, Cytochrome P450 2C19; assay: Drug metabolism assessed as human recombinant CYP2C19-mediated 6-Hydroxymethylexemestane formation at 10 uM after 10 mins by Michaelis-Menten saturation curve analysis; conditions: recombinant enzyme
[18] = biological target: T5, Cytochrome P450 2C8; assay: Drug metabolism assessed as human recombinant CYP2C8-mediated 6-Hydroxymethylexemestane formation at 10 uM after 10 mins by Michaelis-Menten saturation curve analysis; conditions: recombinant enzyme

C#CC1(O)CC[C@H]2[C@@H]3CCC4=CC(=O)CC[C@@H]4[C@H]3CC[C@@]21CC (stereo not given in full) [NORGESTREL]
Retention_time [1]: 20.2 min

C=C1C[C@@H]2[C@H](CC[C@]3(C)C(=O)CC[C@@H]23)[C@@]2(C)C=CC(=O)C=C12 [EXEMESTANE]
inhibition (INH) [2]: < 20%
Retention_time [3]: 15.6 min
inhibition (INH) [4]: < 20%

C[C@]12C=CC(=O)C=C1C(CO)=C[C@@H]1[C@@H]2CC[C@]2(C)C(=O)CC[C@@H]12
Drug metabolism [5]: 0.42 pmol/min
Drug metabolism [6]: 0.3 pmol/min
Drug metabolism [7]: 0.1 pmol/min
Drug metabolism [8]: metabolite_detected
Drug metabolism [9]: metabolite_detected
Drug metabolism [10]: metabolite_detected
Drug metabolism [11]: metabolite_detected
Vmax(app) [12]: 781.15 pmol/mg/min
Km ([12]; read-out: Km(app)): 37.1 µM
Retention_time [13]: 6.4 min
Vmax(app) [14]: 200.47 pmol/mg/min
Vmax(app) [15]: 1.93 pmol/mg/min
Km ([15]; read-out: Km(app)): 9 µM
Drug metabolism [16]: metabolite_detected
Drug metabolism [17]: metabolite_detected
Drug metabolism [18]: metabolite_detected
